Results: PMC8776995 (Frontiers in Chemistry, 2022)
“And” between values parts separate entries of the source, which are not always exact repeats. Identical values can stand only once.

Assays:
[1] = tested on: CCND1, CCNA2, CCNB1, CDK2, CDK6 RNA in PC-9 cells; test: qPCR assay for cell cycle-related gene analysis; format: cell-based, human; details: for RQ / RQ, CCNA / RQ, CCNB / RQ, CCND1 / RQ, CDK6 / RQ (CDK2): endogenous control b-Actin, reference sample NC; for CDK6 relative mRNA expression (fold of NC): qPCR, SYBR Green, normalised to beta-Actin, relative to NC = 1
Excerpt: To better understand the mechanisms underlying cell cycle arrest induced by e4 and e12 in NSCLC cells, we assessed the expression levels of a few genes involved in cell cycle regulation, including cyclin D1 (CCND1), cyclin A2 (CCNA2), cyclin B1 (CCNB1), cyclin-dependent kinase 2 (CDK2), and cyclin-dependent kinase 6 (CDK6) in PC-9 by qPCR. […] CCNA2 is known to bind and activate CDK2 and thus promotes the transition through G1/S and G2/M. CCNB1 and CCND1 are essential to mitosis and G1/S transition respectively. While G2/M arrest weas not detected, the changes in these gene expression profiles interpret the G1/S arrests in PC-9 cells treated with e4 and e12. PC-9 cells exposed to the compounds for various periods should be examined further.
Total RNA of cells was extracted and cDNA was synthesized. The primers for the target products were designed as in Table 3.

[2] = tested on: AKT phosphorylation (S473) in PC-9 cells; test: Western blot, p-AKT/AKT in PC-9; details: for p-AKT/AKT: band density ratio; for p-AKT/AKT relative to DMSO: ratio normalised to DMSO = 1
Procedure: We also performed western blot analysis to evaluate the impact of e4 and e12 on EGFR signaling in PC-9 and H460 cells.
H460 cells were seeded in six-well plates with serum-free medium overnight, and then treated complete medium containing 0.1% DMSO, various concentrations (0.1, 1 and 10 μM) of either compound e4 or e12 for 2 h, respectively. […] Then the H460 cells were treated with complete medium containing EGF (10 ng/ml) for 5 min. Then the cells were harvested and washed with PBS, centrifuged, resuspended in 100–200 μl of RIPA lysis buffer containing Protease and Phosphatase Inhibitor Cocktail (1X), and then centrifuged for 5 min at 12,000 rpm at 4°C. The supernatant was used for protein analysis. […] Then the membrane was washed 5 min (X3) and incubated at 1:3,000 dilution of anti-rabbit secondary antibodies or 1:1,000 dilution of anti-mouse secondary antibodies for 1 h at RT. After washing with TBST 5 min (X3), protein bands were developed by chemiluminescence. The protein levels were quantified by the gray values of the bands in the resulting images by ImageJ, and the control group was used as the standard. […] The PC-9 cells were harvested and analyzed as above.

[3] = tested on: PC-9 cells; test: CCK-8 antiproliferation assay, PC-9; details: for Inhibitory efficacy: single repeats (Repeat 1-3), given as fraction
[4] = PC-9, 16 h, compared with DMSO control

With `COCCOc1cc2ncnc(Nc3cccc(-c4cn(-c5ccc(C)cc5)nn4)c3)c2cc1OCCOC` [e12, [6,7-Bis-(2-methoxy-ethoxy)-quinazolin-4-yl]-[3-(1-p-tolyl-1H-[1,2,3]triazol-4-yl)-phenyl]-amine] the “2^ΔΔCт CDK2” value ([1]; CDK2, 12uM, Repeat 1-3, relative to NC = 1) was 0.7751 and 1.0315 and 0.9502, the RQ ([1]; CDK2 mRNA, 4uM) was 1.127 and the RQ ([1]; CDK2 mRNA, 8uM) was 0.9665. The RQ ([1]; CDK2 mRNA, 12uM) was 0.9502, the “2^ΔΔCт CDK6” value ([1]; CDK6, 4uM, Repeat 1-3, relative to NC = 1) was 0.5928 and 0.8604 and 0.9896 and the “2^ΔΔCт CDK6” value ([1]; CDK6, 8uM, Repeat 1-3, relative to NC = 1) was 0.8101 and 1.1509 and 0.9153. For the same compound, the “2^ΔΔCт” value ([1]; CDK6, 8uM, normalized to WT (NC), run 20201020-2) was 0.9153, the “2^ΔΔCт CDK6” value ([1]; CDK6, 12uM, Repeat 1-3, relative to NC = 1) was 0.676 and 1.27 and 0.9852 and the RQ ([1]; CDK6 mRNA, 4uM) was 0.9896. For the same compound, the RQ ([1]; CDK6 mRNA, 8uM) was 0.9153, the RQ ([1]; CDK6 mRNA, 12uM) was 0.9852 and the “RNA level of CCNA2” value [1, 4] was “significantly decreased”. The “RNA level of CCNB1” value [1, 4] was “significantly decreased”, the “RQ, CCNA” value ([1]; qPCR SYBR Green, CCNA mRNA, 4uM) was 0.6447 and the “RQ, CCNA” value ([1]; qPCR SYBR Green, CCNA mRNA, 8uM) was 0.5272. For the same compound, the “RQ, CCNA” value ([1]; qPCR SYBR Green, CCNA mRNA, 12uM) was 0.5472, the “RQ, CCNB” value ([1]; qPCR SYBR Green, CCNB mRNA, 4uM) was 1.09 and the “RQ, CCNB” value ([1]; qPCR SYBR Green, CCNB mRNA, 8uM) was 1.029. For the same compound, the “RQ, CCNB” value ([1]; qPCR SYBR Green, CCNB mRNA, 12uM) was 0.964, the “RQ, CCND1” value ([1]; qPCR SYBR Green, CCND1 mRNA, 4uM) was 0.963 and the “RQ, CCND1” value ([1]; qPCR SYBR Green, CCND1 mRNA, 8uM) was 0.9528. For the same compound, the “RQ, CCND1” value ([1]; qPCR SYBR Green, CCND1 mRNA, 12uM) was 0.9545, the “RQ, CDK6” value ([1]; qPCR SYBR Green, CDK6 mRNA, 4uM) was 0.8604 and the “RQ, CDK6” value ([1]; qPCR SYBR Green, CDK6 mRNA, 8uM) was 1.1509. For the same compound, the “RQ, CDK6” value ([1]; qPCR SYBR Green, CDK6 mRNA, 12uM) was 1.27, the “CDK6 relative mRNA expression (fold of NC)” value ([1]; 4uM) was 0.9896 and the “CDK6 relative mRNA expression (fold of NC)” value ([1]; 8uM) was 0.9153. For the same compound, the “CDK6 relative mRNA expression (fold of NC)” value ([1]; 12uM) was 0.9852, the “RQ, CCNA” value ([1]; target CCNA, 4uM) was 0.5435 and the “RQ, CCNA” value ([1]; target CCNA, 8uM) was 0.582. The “RQ, CCNA” value ([1]; target CCNA, 12uM) was 0.5914, the “RQ, CCNB” value ([1]; target CCNB, 4uM) was 0.9828 and the “RQ, CCNB” value ([1]; target CCNB, 8uM) was 0.8452. The “RQ, CCNB” value ([1]; target CCNB, 12uM) was 0.7825, the “RQ, CCND1” value ([1]; target CCND1, 4uM) was 0.7886 and the “RQ, CCND1” value ([1]; target CCND1, 8uM) was 0.7649. The “RQ, CCND1” value ([1]; target CCND1, 12uM) was 0.6173, the “RQ (CDK2)” value ([1]; target CDK2, 4uM) was 0.9262 and the “RQ (CDK2)” value ([1]; target CDK2, 8uM) was 0.848. The “RQ (CDK2)” value ([1]; target CDK2, 12uM) was 0.7751, the “RQ, CDK6” value ([1]; target CDK6, 4uM) was 0.5928 and the “RQ, CDK6” value ([1]; target CDK6, 8uM) was 0.8101. The “RQ, CDK6” value ([1]; target CDK6, 12uM) was 0.676, the p-AKT/AKT ([2]; PC-9, 0.1 uM) was 0.5916 and the “p-AKT/AKT relative to DMSO” value ([2]; PC-9, 0.1 uM) was 0.5679. For the same compound, the p-AKT/AKT ([2]; PC-9, 1 uM) was 0.4098, the “p-AKT/AKT relative to DMSO” value ([2]; PC-9, 1 uM) was 0.3934 and the p-AKT/AKT ([2]; PC-9, 10 uM) was 0.7398. The “p-AKT/AKT relative to DMSO” value ([2]; PC-9, 10 uM) was 0.7102, the “phosphorylation of AKT (western blot)” value ([2]; PC-9, especially at 10 μM) was “suppressed” and the IC50 ([3]; Homo sapiens, PC-9, 48 h, read-out: IC50 (μM) PC-9) was 6.36 ± 0.11 µM. It also gave an inhibition at 4 µM ([3]; Homo sapiens, PC-9, read-out: Inhibitory efficacy, PC-9, 4uM, single repeats (Repeat 1-3), given as fraction) of 21.3%, an inhibition at 8 µM ([3]; Homo sapiens, PC-9, read-out: Inhibitory efficacy, PC-9, 8uM, single repeats (Repeat 1-3), given as fraction) of 70.1% and an inhibition at 16 µM ([3]; Homo sapiens, PC-9, read-out: Inhibitory efficacy, PC-9, 16uM, single repeats (Repeat 1-3), given as fraction) of 88.6%. The Inhibitory efficacy ([3]; PC-9, 4uM, 4 µM) was 0.1587 and 0.2347, the Inhibitory efficacy ([3]; PC-9, 8uM, 8 µM) was 0.6968 and 0.6771 and the Inhibitory efficacy ([3]; PC-9, 16uM, 16 µM) was 0.8795 and 0.8884.
